The record followed here is patent US6620792B1, “Pharmaceutical compositions containing monosialoganglioside GM1 or derivative thereof suitable for the treatment of parkinson's disease” (Fidia S.p.A., priority 1992, dated 2003).

In data set [1] the test system is mesencephalic dopaminergic neurons. In words: TOPA neurotoxicity in mesencephalic dopaminergic neuron cultures, TH immunofluorescence. The format is cell-based, rat. As for the experimental part:
Mesencephalic neuron cultures were prepared according to Dal Toso et al. (Dal Toso et al.: “Development and survival of neurons in dissociated fetal mesencephalic serum-free cell cultures: I. Effects of cell density and of an adult mammalian striatal-derived neuronotrophic factor (SDNF)”, J. Neurosci., 8 (3) 733-745, 1988) from the mesencephalic tegmentum of 14.5-15 days' rat embryos.
Neurons (0.75×10^6) were plated on a poly-L-ornithine substrate in 12-well (25 mm dia. each) clusters.
Cultures were used between the fourth and the sixth day without changing the medium. […]
(§1) 2-hour pretreatment before acute incubation with TOPA;
(§2) cotreatment only with LIGA 20 before acute incubation with TOPA;
(§3) pretreatment with/without cotreatment before (100 μM for 2 h) and/or during (100 μM for 24 h) prolonged incubation with TOPA. TOPA cytotoxicity was determined by evaluating cellular survival, and more precisely:
TH immunofluorescence (specific for tyrosine hydroxylase) in mesencephalic dopaminergic neurons, as described by Berger et al. (Berger B. et al.: “Long-term development of mesencephalic dopaminergic neurons of mouse embryos in dissociated primary cultures: morphological and histochemical characteristics”, Neurosci., 7, 193-205, 1982);
(§4) Cytotoxicity is expressed as per cent cellular survival.
The results of the two tests (in triplicate) were analysed statistically according to Duncan's test.

For another data set, the system named is cerebellar granule cells. In words: TOPA neurotoxicity in cerebellar granule cell cultures, MTT assay. Format: cell-based. The following applies: for Neuronal survival (%): control cultures = 100%. As for the experimental part: Granular cell cultures were obtained from 8-day rat cerebella and cultured (3×10^6 cells) on plates coated with poly-L-lysine substrate according to Skaper et al. (Skaper S. D. et al.: “Culture and use of primary and clonal neural cells”, Methods in Neurosciences, Ed. by P. M. Conn, Vol. 2, pp. 17-33, Academic Press, Orlando, 1990).
Twenty-four hours later, cytosine arabinoside (10 μM) was added to inhibit non-neuronal proliferation. Cerebellar granule cells were used 10-12 days later without changing the medium.
Cells were incubated with TOPA either for 40 minutes (100 μM acute exposure) or for 24 h (10 μM prolonged exposure).
Treatment with GM1, AGF2, AGF4 (100 μM) and LIGA 20 (1-30 μm) was carried out as follows:
as §1, §2, §3
MTT colorimetric assay of cerebellar neurons, as described by Mosmann (Mosmann T.: “Rapid colorimetric assay for cellular growth and survival: application to proliferation and cytotoxicity assays”, J. Immunol. Meth., 65, 55-63, 1983).
as §4
The results of the two tests (in triplicate) were analysed statistically according to Duncan's test. A brief description of same is reported below:
In FIG. 3 the dose-dependent protective effect of LIGA20 against TOPA-induced death of cultured cerebellar granule cells is represented. Cells were exposed concurrently to 100 μM TOPA and 1-30 μM LIGA20 or 200 μM GM1 in Locke's solution for 45 minutes (24° C.), washed and returned to their original medium. Survival was assessed 24 h later by the MTT method. Means±S.E.M. (n=9, 3 experiments). TOPA ( ), LIGA 20 ( ), GM1 ( ).
In vitro granule cells at the 11th day were incubated as indicated above. In the 40-minute exposure to TOPA, GM1 (100 μM) was used in 2-h pretreatment only. In the […] exposure to TOPA, GM1 (100 μM) was used either in 2-h pretreatment only or in 2-h pretreatment and in cotreatment with TOPA. The values are expressed with reference to the corresponding control cultures (=100%) and are an average (±S.D.) of two determinations, each being carried out in triplicate.
For orientation: Tetrazolium dyes change colour on reduction, which living cells bring about.

Take `NC(Cc1cc(O)c(O)cc1O)C(=O)O` (stereo not drawn) [TOPA, 6-hydroxy-dopa, reference compound]: the “No. of TH+ cells” value in data set [1] (TOPA 10 μM alone for 24 h, average ± S.D., control 244 ± 20) is listed as 62 ± 8 (a). Further, the “Neuronal survival (%)” value with cerebellar granule cells (TOPA 10 μM alone, 24-h exposure) is given as 17.1 ± 1.4%; with cerebellar granule cells (TOPA 100 μM alone, 40-minute exposure), 22 ± 2.0%.

Consider N-dichloroacetyl lyso GM1 [LIGA20], for which, in data set [1] (30 μM LIGA20 cotreatment with 100 μM TOPA for 45 minutes, counted 24 h later, mean ± S.E.M., no drug 5.2 ± 1.1), the “TH+ cells (% control)” value was determined as 83.9 ± 4.2 % control. Moreover, the EC50 in the data set on cerebellar granule cells (cotreatment with 100 μM TOPA for 45 minutes, 1-30 μM LIGA20, MTT 24 h later (FIG. 3), read-out: ED50 of protection against the acute toxicity of TOPA) is about 9 µM.

B1: BDNF: brain-derived neurotrophic factor (protein, UniProt P23560 19-247, looked up)
Neurotrophic factor BDNF …: APMKEANIRGQGGLAYPGVRTHGTLESVNGPKAGSRGLTSLADTFEHVIEELLDEDQKVRPNEENNKDADLYTSRVMLSSQVPLEPPLLFLLEEYKNYLDAANMSMRVRRHSDPARRGELSVCDSISEWVTAADKKTAVDMSGGTVTVLEKVPVSKGQLKQYFYETKCNPMGYTKEGCRGIDKRHWNSQCRTTQSYVRALTMDSKKRIGWRFIRIDTSCVCTLTIKRGR
As for B1, in data set [1] (BDNF alone at 1 ng/ml), the “neuroprotective activity alone against TOPA-induced neurotoxicity” value is recorded as “no neuroprotective activity of their own”.
